Data taken from US8981094B2, “Piperidine/piperazine derivatives” (Janssen Pharmaceutica N.V., priority 2007, dated 2015).

These compounds were tested against T1, human DGAT1 (Homo sapiens, UniProt O75907) (assay: Inhibition of DGAT1 activity, FlashPlate assay with DGAT1 membrane preparations and substrate micelles). Details: pIC50 = -logIC50, IC50 values expressed in M.
T1 construct: FLAG (N); made in house; host or cells: SF9 insect cells (pFastBac baculovirus); total cell membranes
T1 sequence (O75907 1-488): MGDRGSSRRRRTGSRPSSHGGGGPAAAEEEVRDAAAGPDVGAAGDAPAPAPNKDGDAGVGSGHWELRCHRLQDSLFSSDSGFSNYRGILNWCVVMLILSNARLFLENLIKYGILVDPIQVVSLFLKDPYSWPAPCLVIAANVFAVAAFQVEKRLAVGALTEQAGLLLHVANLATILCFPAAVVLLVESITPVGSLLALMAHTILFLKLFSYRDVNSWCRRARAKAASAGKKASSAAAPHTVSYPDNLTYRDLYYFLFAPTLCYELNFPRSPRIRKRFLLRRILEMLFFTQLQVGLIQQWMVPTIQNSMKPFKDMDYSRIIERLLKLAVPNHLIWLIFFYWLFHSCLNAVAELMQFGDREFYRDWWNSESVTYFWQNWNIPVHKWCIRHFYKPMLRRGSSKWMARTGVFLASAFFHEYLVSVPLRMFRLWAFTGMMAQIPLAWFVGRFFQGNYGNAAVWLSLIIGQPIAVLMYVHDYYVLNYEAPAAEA
Assay type: biochemical
Description: A) Measurement of Inhibition of DGAT1 Activity by the Present Compounds
The inhibiting activity of the present compounds on DGAT1 activity was screened in a single well procedure assay using DGAT1 comprising membrane preparations and DGAT1 substrate comprising micelles and determining formed radio-active triacylglycerol coming in close proximity of a flashplate surface by radio luminescence.
Said assay is described in full detail in WO2006/067071, the content of which is incorporated herein by reference.
By DGAT1 activity is meant the transfer of coenzyme A activated fatty acids to the 3-position of 1,2-diacylglycerols, thus forming a triglyceride molecule, by enzyme DGAT1.
human DGAT1 (NM012079.2) was cloned into the pFastBac vector, containing translation start, a FLAG-tag at the N-terminus as described in literature and a viral Kozak sequence (AAX) preceding the ATG to improve expression in insect cells. Expression was done as described in literature (Cases, S., Smith, S. J., Zheng, Y., Myers H. M., Lear, S. R., Sande, E., Novak, S., Collins, C., Welch, C. B., Lusis, A. J., Erickson, S. K. and Farese, R. V. (1998) Proc. Natl. Acad. Sci. USA 95, 13018-13023.) using SF9 cells.
72 h transfected SF9 cells were collected by centrifugation (13000 rpm-15 min-4° C.) and lysed in 2×500 ml lysisbuffer (0.1M Sucrose, 50 mM KCl, 40 mM KH2PO4, 30 mM EDTA pH 7.2. Cells were homogenized by cell disruptor. After centrifugation 1380 rpm-15 min-4° C. (SN discarded), pellet was resuspended in 500 ml lysisbuffer and total cell membranes collected by ultracentrifugation at 34000 rpm(100 000 g) for 60 min (4° C.). The collected membranes were resuspended in lysis buffer, divided in aliquots and stored with 10% glycerol at −80° C. until use.
Add 1 ml dioleoyl-sn-glycerol (10 mg/ml) to 10 ml of L-α-phosphatidylcholine (1 mg/ml) and 10 ml of L-α-phosphatidyl-L-serine (1 mg/ml) in a thick glass recipient. Evaporate under nitrogen and put on ice for 15 minutes. Reconstitute in 10 ml Tris/HCl (10 mM, pH 7.4) by sonication on ice. The sonification process consists of sonification cycles of 10 seconds in the sonification bath followed by 10 seconds cool down on ice and repeating this sonification cycle till a homogeneous solution is obtained (takes about 15 minutes). The thus obtained micelles are stored at −20° C. till later use and contain DAG at a final concentration of 1.61 mM.
c) Substrate mix (for 1 384 well plate=3840 μl) • 612 μl micelles stock (51 μM final) • 16.6 μl oleoylCoA 9.7 mM • 23 μl [^3H]-oleoylCoA (49 Ci/mmol, 500 μCi/ml) • 3188.4 μl Tris pH 7.4, 10 mM
d) Enzyme mix (for 1 384 well plate=3520 μl) (5 μg/ml) • Add 11.73 μl of DGAT membrane stock (1500 μg/ml stock) to 3508 μl assay buffer.
e) Stop mix (for 1 384 well plate=7.68 ml) (250 mM) • Add 384 μl of N-ethylmaleimide (5M) to 3.456 ml DMSO 100%, and further dilute 3.84 ml of said solution with 3.84 ml DMSO 10%.
DGAT activity in membrane preparations was assayed in 50 mM Tris-HCl (pH 7.4), 150 mM MgCl2, 1 mM EDTA and 0.2% BSA, containing 50 μM DAG, 32 μg/ml PC/PS and 8.4 μM [^3H]-oleoylCoA (at a specific activity of 30 nCi/well) in a final volume of 50 μl in 384-well format using the red shifted Basic Image FlashPlate™ (Perkin Elmer Cat.No. SMP400).
In detail, 10 μl enzyme mix and 10 μl substrate mix were added to 30 μl of assay buffer, optionally in the presence of 1 μl DMSO (blank and controls) or 1 μl of the compound to be tested. This reaction mixture was incubated for 120 minutes at 37° C. and the enzymatic reaction stopped by adding 20 μl of the stop mix. The plates were sealed and the vesicles allowed to settle overnight at room temperature. Plates were centrifuged for 5 minutes at 1500 rpm and measured in Leadseeker. […]

Row | Structure (SMILES) | IC50 [nM]
1 | O=C(CNCc1ccco1)Nc1ccc(C2CCN(C(=O)Nc3c(Cl)cccc3Cl)CC2)cc1 [Compound 119] | 389
2 | N#CCCNCC(=O)Nc1ccc(C2CCN(C(=O)Nc3c(Cl)cccc3Cl)CC2)cc1 [Compound 121] | 3800
3 | O=C(CCN1CCOCC1)Nc1ccc(C2CCN(C(=O)Nc3c(Cl)cccc3Cl)CC2)cc1 [Compound 125] | 646
4 | COC(=O)CCCC(=O)Nc1ccc(C2CCN(C(=O)Nc3c(Cl)cccc3Cl)CC2)cc1 [Compound 126] | 67.6
5 | O=C(CCc1ccco1)Nc1ccc(C2CCN(C(=O)Nc3c(Cl)cccc3Cl)CC2)cc1 [Compound 133] | 38
6 | O=C(CCN1CCOCC1)Nc1ccc(N2CCN(C(=O)Nc3c(Cl)cccc3Cl)CC2)cc1 [Compound 136] | 389
7 | CN(C)C(=O)CCC(=O)Nc1ccc(N2CCN(C(=O)Nc3c(Cl)cccc3Cl)CC2)cc1 [Compound 137] | 3390
8 | CCCCC(=O)Nc1ccc(N2CCN(C(=O)Nc3c(Cl)cccc3Cl)CC2)cc1 [Compound 140] | 19.1
9 | O=C(Cc1ccsc1)Nc1ccc(N2CCN(C(=O)Nc3c(Cl)cccc3Cl)CC2)cc1 [Compound 142] | 13.8
10 | O=C(CCc1ccco1)Nc1ccc(N2CCN(C(=O)Nc3c(Cl)cccc3Cl)CC2)cc1 [Compound 143] | 18.2
11 | COc1ccc(CC(=O)Nc2ccc(N3CCN(C(=O)Nc4c(Cl)cccc4Cl)CC3)cc2)cc1 [Compound 144] | 5.75
12 | COC(=O)CCCC(=O)Nc1ccc(N2CCN(C(=O)Nc3c(Cl)cccc3Cl)CC2)cc1 [Compound 145] | 55
13 | O=C(CC1CCCN1)Nc1ccc(C2CCN(C(=O)Nc3c(Cl)cccc3Cl)CC2)cc1 (stereo not drawn) [Compound 149] | 7240
14 | NCCC(=O)Nc1ccc(C2CCN(C(=O)Nc3c(Cl)cccc3Cl)CC2)cc1 [Compound 150] | 6920
15 | O=C(CC(c1ccc(Cl)cc1)c1ccc(Cl)cc1)c1ccc(N2CCN(C(=O)Nc3c(Cl)cccc3Cl)CC2)cc1 [Compound 162] | 112
16 | CN(CC(=O)Nc1ccc(N2CCN(C(=O)Nc3c(Cl)cccc3Cl)CC2)cc1)C(=O)CC(C)(C)C [Compound 167] | 22.4
17 | CCCC(=O)N(C)CC(=O)Nc1ccc(N2CCN(C(=O)Nc3c(Cl)cccc3Cl)CC2)cc1 [Compound 169] | 53.7
18 | O=C(CCCc1ccccn1)Nc1ccc(N2CCN(C(=O)Nc3c(Cl)cccc3Cl)CC2)cc1 [Compound 195] | 123
19 | C=CCC(NC(=O)OC(C)(C)C)C(=O)Nc1ccc(C2CCN(C(=O)Nc3c(Cl)cccc3Cl)CC2)cc1 (stereo not drawn) [Compound 207] | 209
20 | COCC(NC(=O)OC(C)(C)C)C(=O)Nc1ccc(C2CCN(C(=O)Nc3c(Cl)cccc3Cl)CC2)cc1 (stereo not drawn) [Compound 209] | 166
21 | CSCC(NC(=O)OC(C)(C)C)C(=O)Nc1ccc(C2CCN(C(=O)Nc3c(Cl)cccc3Cl)CC2)cc1 (stereo not drawn) [Compound 210] | 155
22 | CC(C)(C)OC(=O)NC(CC#N)C(=O)Nc1ccc(C2CCN(C(=O)Nc3c(Cl)cccc3Cl)CC2)cc1 (stereo not drawn) [Compound 211] | 126
23 | CC(C)(C)OC(=O)NCC(=O)Nc1ccc(C2CCN(C(=O)Nc3c(Cl)cccc3Cl)CC2)cc1 [Compound 212] | 115

Other lines, results leading:

Row | IC50 [nM] | Structure (SMILES)
24 | 214 | O=C(CNCc1ccccc1)Nc1ccc(C2CCN(C(=O)Nc3c(Cl)cccc3Cl)CC2)cc1 [Compound 117]
25 | 347 | O=C(CNCc1ccc(F)cc1)Nc1ccc(C2CCN(C(=O)Nc3c(Cl)cccc3Cl)CC2)cc1 [Compound 118]
26 | 562 | CCCNCC(=O)Nc1ccc(C2CCN(C(=O)Nc3c(Cl)cccc3Cl)CC2)cc1 [Compound 122]
27 | 871 | O=C(Cn1ccnc1)Nc1ccc(C2CCN(C(=O)Nc3c(Cl)cccc3Cl)CC2)cc1 [Compound 123]
28 | 166 | O=C(CC1CCCCC1)Nc1ccc(C2CCN(C(=O)Nc3c(Cl)cccc3Cl)CC2)cc1 [Compound 124]
29 | 2090 | O=C(CCN1CCCCC1)Nc1ccc(C2CCN(C(=O)Nc3c(Cl)cccc3Cl)CC2)cc1 [Compound 128]
30 | 245 | C#CCCC(=O)Nc1ccc(C2CCN(C(=O)Nc3c(Cl)cccc3Cl)CC2)cc1 [Compound 129]
31 | 38 | CCCCC(=O)Nc1ccc(C2CCN(C(=O)Nc3c(Cl)cccc3Cl)CC2)cc1 [Compound 130]
32 | 25.7 | O=C(CCc1ccccc1)Nc1ccc(C2CCN(C(=O)Nc3c(Cl)cccc3Cl)CC2)cc1 [Compound 131]
33 | 44.7 | O=C(Cc1ccsc1)Nc1ccc(C2CCN(C(=O)Nc3c(Cl)cccc3Cl)CC2)cc1 [Compound 132]
34 | 15.5 | COc1ccc(CC(=O)Nc2ccc(C3CCN(C(=O)Nc4c(Cl)cccc4Cl)CC3)cc2)cc1 [Compound 134]
35 | 120 | C#CCCC(=O)Nc1ccc(N2CCN(C(=O)Nc3c(Cl)cccc3Cl)CC2)cc1 [Compound 139]
36 | 10500 | C=CCC(N)C(=O)Nc1ccc(C2CCN(C(=O)Nc3c(Cl)cccc3Cl)CC2)cc1 (stereo not drawn) [Compound 146]
37 | 7080 | CC(N)C(=O)Nc1ccc(C2CCN(C(=O)Nc3c(Cl)cccc3Cl)CC2)cc1 (stereo not drawn) [Compound 148]
38 | 6920 | CCC(N)C(=O)Nc1ccc(C2CCN(C(=O)Nc3c(Cl)cccc3Cl)CC2)cc1 (stereo not drawn) [Compound 151]
39 | 1410 | COCCOCC(=O)N(C)CC(=O)Nc1ccc(N2CCN(C(=O)Nc3c(Cl)cccc3Cl)CC2)cc1 [Compound 163]
40 | 30.9 | CC(C)CC(=O)N(C)CC(=O)Nc1ccc(N2CCN(C(=O)Nc3c(Cl)cccc3Cl)CC2)cc1 [Compound 168]
41 | 245 | CCC(=O)N(C)CC(=O)Nc1ccc(N2CCN(C(=O)Nc3c(Cl)cccc3Cl)CC2)cc1 [Compound 170]
42 | 6.17 | COc1cc(Cl)c(NC(=O)N2CCN(c3ccc(NC(=O)CCCc4ccccc4)cc3)CC2)c(Cl)c1 [Compound 190]
43 | 44.7 | COc1ccc(CC(=O)Nc2ccc(N3CCN(C(=O)Nc4c(Cl)cc(OC)cc4OC)CC3)cc2)cc1 [Compound 191]
44 | 1910 | CC(C)(C)OC(=O)NC(CO)C(=O)Nc1ccc(C2CCN(C(=O)Nc3c(Cl)cccc3Cl)CC2)cc1 (stereo not drawn) [Compound 204]
45 | 398 | CCC(NC(=O)OC(C)(C)C)C(=O)Nc1ccc(C2CCN(C(=O)Nc3c(Cl)cccc3Cl)CC2)cc1 (stereo not drawn) [Compound 205]
46 | 269 | CC(NC(=O)OC(C)(C)C)C(=O)Nc1ccc(C2CCN(C(=O)Nc3c(Cl)cccc3Cl)CC2)cc1 (stereo not drawn) [Compound 206]
47 | 191 | CC(C)C(NC(=O)OC(C)(C)C)C(=O)Nc1ccc(C2CCN(C(=O)Nc3c(Cl)cccc3Cl)CC2)cc1 (stereo not drawn) [Compound 208]
48 | 107 | CCC(C)C(NC(=O)OC(C)(C)C)C(=O)Nc1ccc(C2CCN(C(=O)Nc3c(Cl)cccc3Cl)CC2)cc1 (stereo not drawn) [Compound 213]
